Laboratory results: ChEMBL document CHEMBL1121684, “Selective and potent beta 2-adrenoceptor agents within the tetrahydroisoquinoline class: effect of methyl substitution at the benzylic carbon of the 1-(3,4,5-trimethoxybenzyl) group of trimetoquinol” (J Med Chem, 1981)

Tests used:
[1] = target: Beta-2 adrenergic receptor (Cavia porcellus) (UniProt Q8K4Z4)
Description: Beta-2 adrenergic receptor activity in guinea pig tracheal smooth muscle

[2] = system: Beta-1 adrenergic receptor (Cavia porcellus); details: Cardiac atrium

Sequence of Beta-2 adrenergic receptor (Cavia porcellus) (Q8K4Z4 whole entry, looked up): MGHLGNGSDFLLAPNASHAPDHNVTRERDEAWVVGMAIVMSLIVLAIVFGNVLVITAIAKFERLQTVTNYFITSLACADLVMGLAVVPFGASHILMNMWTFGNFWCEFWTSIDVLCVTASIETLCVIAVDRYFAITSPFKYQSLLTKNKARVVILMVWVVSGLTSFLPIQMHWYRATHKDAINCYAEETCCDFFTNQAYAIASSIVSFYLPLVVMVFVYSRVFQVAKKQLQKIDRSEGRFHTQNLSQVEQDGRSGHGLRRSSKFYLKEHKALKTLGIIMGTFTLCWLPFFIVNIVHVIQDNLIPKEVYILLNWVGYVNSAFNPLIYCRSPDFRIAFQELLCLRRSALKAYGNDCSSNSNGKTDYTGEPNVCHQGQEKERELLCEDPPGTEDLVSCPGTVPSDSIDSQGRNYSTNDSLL

| pD2 [1] | pD2 [2] | SMILES |
| --- | --- | --- |
| 4.47 | – | COc1cc(C(C)(C)[C@@H]2NCCc3cc(O)c(O)cc32)cc(OC)c1OC |
| 8.15 | – | COc1cc(C[C@@H]2NCCc3cc(O)c(O)cc32)cc(OC)c1OC |
| 8.39 | 7.35 | COc1cc([C@@H](C)[C@@H]2NCCc3cc(O)c(O)cc32)cc(OC)c1OC |
| 7.15 | 6.67 | COc1cc([C@H](C)[C@@H]2NCCc3cc(O)c(O)cc32)cc(OC)c1OC |
